Consider 1 compound from patent publication US10933147B2, “Imaging of metastatic or recurrent cancer” (Blue Earth Diagnostics Limited, priority 2015, dated 2021).

Each structure is given as a SMILES string. A value given as a limit tells only on which side of the number the result lay.

Data set [1] is described as follows: PET time activity curves in reference regions. The settings on record: regions in marrow (ilium), muscle (gluteus), and bladder; remained constant throughout the imaging period. The data set is classed as in vivo, human. On the procedure: (§1) Regions in marrow (ilium), muscle (gluteus), and bladder reached a plateau at 4.5 minutes that remained constant throughout the imaging period.
(§2) The time required for [^18F]-FACBC to accumulate in tumour cells in steps a) and c) of the aspects described above may be about 5 minutes or less after [^18F]-FACBC is administered. Optionally, the time taken for [^18F]-FACBC to accumulate is 3 to 5 minutes, for example 4 minutes. This therefore allows image acquisition to start 3 to 5 minutes after administration, for example 4 minutes after [^18F]-FACBC administration. […] Regions in marrow (ilium), muscle (gluteus), and bladder reached a plateau at 4.5 minutes that remained constant throughout the imaging period.

For data set [2] the following is noted: human, in vivo. How it is done:
FIGS. 1a and 1b show accumulation of FACBC in the Virchow's node when the FACBC is injected into the left arm.
In some embodiments, the right arm may be preferred as stasis in the axillary vein upon injection in the left arm may be misinterpreted as a metastatic lymph node called Virchow's node, which is located in the left supraclavicular fossa (the area above the left clavicle, or collar bone). For example, FIGS. 1a and 1b show accumulation of FACBC in the Virchow's node when the FACBC is injected into the left arm.

For data set [3], the system named is known prostate carcinoma recurrence. Briefly: PET time activity curves in prostate carcinoma recurrence. In kind it is in vivo, human. How it is done: as §1, §2

As to `N[C@]1(C(=O)O)C[C@@H](F)C1` [fluciclovine, anti-1-amino-3-^18F-fluorocyclobutane-1-carboxylic acid], the “time at which plateau is reached” value in data set [1] is 4.5 min. In addition, the “standardized uptake value (SUV)” value in data set [2] is over 200. Moreover, the “plateau of uptake lasts to” value in data set [3] (known prostate carcinoma recurrence, after the maximum) was determined as 30 min. Also, the gradual clearance in data set [3] (known prostate carcinoma recurrence, after the plateau, out to 60 minutes) is listed as 9 %/min. Further, the “time of maximum uptake” value in data set [3] (rapid uptake in known prostate carcinoma recurrence) amounted to 4.5 min.
